We go through seven compounds from US20220153750A1, “SALTS OF 5,6-DIHYDRO-4H-THIENO[2,3-C]PYRROL-4-ONE COMPOUND AS ERK INHIBITORS” (Eli Lilly and Company, priority 2019, published 2022).

What all share (format): physicochemical
Data set [1] is described as follows: Compaction properties / tabletability (Instron compaction, tensile strength). As to conditions: for Tensile: 300 mg compact. The procedure: The purpose of this study is to determine the compaction properties of certain solid forms of the present invention. The experimental compaction testing is evaluated on Instron Universal Testing System equipped with a 50 kN load cell using Natoli 10 mm flat round punches and die for material compression. The profiles are generated at 5, 10, and 15 kN with a target tablet weight of 300 mg for each compact. The three compacts are made at each pressure set point while the Instron is traveling at 50 mm/minute. The compacts final weight is measured on a balance. The tablet's diameter and thickness is measured using Mitutoyo Thickness Gauge and hardness testing is completed on a Vankel Hardness tester using axially breakage.

Data set [2] can be described thus: Equilibrium solubility of crystalline solid forms in simulated fluids (SGF, FaSSIF, FedSSIF). As to conditions: for solubility thermodynamic at 24 h: thermodynamic from solid, room temperature. The procedure:
The purpose of this assay is to measure the solubility of certain solid forms of the present invention in comparison to 6,6-dimethyl-2-{2-[(1-methyl-1H-pyrazol-5-yl)amino]pyrimidin-4-yl}-5-[2-(morpholin-4-yl)ethyl]-5,6-dihydro-4H-thieno[2,3-c]pyrrol-4-one (free base). pKa Determination is performed using a UV-metric method. The sample is titrated in a fast-UV triple titration between pH 2-12 at a concentration of 31-19 μM under aqueous condition. Subsequently, the sample is titrated in three UV-metric titrations from pH 1.5-10 at a concentration of 30-27 μM with no precipitation and the observed pKa averages are reported.
To determine the solubility of the three different crystal forms, a single aliquot of the test media (2 mL, see table 4) is added to an accurately weighed sample. Samples are mixed at room temperature for a period of 24 hours. If a solution is observed, more crystalline material is added and the suspension is slurried for at least 2 hours, after which, an aliquot is withdrawn, filtered through a 0.45 μm PTFE filter and characterized by HPLC using the following HPLC conditions: Column Waters)(Bridge Phenyl, 4.6×100 mm, 3.5 μm, mobile phase A is 0.% NH4OH in water, mobile phase B is MeOH, diluent is 75% ACN and 25% water, gradient is 50% A at time 0, 25% A at time 10-13 minutes, and 50% A at time 13.1 to 18 minutes with a flow rate of 0.9 mL/minute, a column temperature of 35° C., UV at 225 nM, an injection volume of 5 and autosampler at ambient temperature. The remaining solids are air dried prior to analysis by XRPD. One replicate from each sample has triplicate HPLC analysis. pH Measurement of the solution is performed using calibrated scientific pH equipment. […] The equilibrium solubility in simulated intestinal fluids of the free base (assumed crystalline) compared to the crystalline methanesulfonic acid dihydrate salt (Example 2) and 4-methylbenzenesulfonic acid salt (Example 3), (assumed crystalline) are shown in Table 4.

Data set [3] can be described thus: Hygroscopicity (moisture sorption analysis at 25° C.). The following applies: for Hygroscopicity, weight increase: 25° C. The procedure: The purpose of this assay is to determine the hygroscopicity of the solid forms of the present invention under conditions normally encountered in manufacturing and storage of drug products. Moisture analysis is performed at 25° C. using a TA instrument. The following experimental conditions are used: sample size ˜3-20 mg, dry sample at 0% RH until <0.0 weight change over 10 minutes, 5-95% RH adsorption/desorption range, and 5% RH step interval. The minimum equilibration criterion is <0.01% weight change for 5 minutes.

Data set [4] is described as follows: Accelerated open-dish physical stability of prototype tablet (XRPD, HPLC). As for the experimental part:
(§1) The purpose of this study is to evaluate the properties of certain solid forms of the present invention with respect to the suitability for manufacturing high drug load tablets. The API flowability is measured using a United States Pharmacopeia method for bulk/tapped density and a powder rheometer. The formula contains ˜64.6 wt % Example 2, 26.4 wt % microcrystalline cellulose (diluent/binder), 5 wt % croscarmellose sodium (disintegrant), 2 wt % sodium stearyl fumarate (lubricant), and 2 wt % silicone dioxide (glidant). The components are combined and tumble blended in a single step at a 40 g scale. The resulting blend is then tested using the same bulk/tapped density and powder rheometry tests. The blend is compressed on a single-station, instrumented tablet press. The accelerated studies are comprised of prototype tablets of methanesulfonic acid dihydrate (Example 2) at a 50% free base equivalence drug load. The tablets are prepared and stored in open-dish containers to evaluate stability. Samples are stored at 40° C./11% RH, 40° C./75% RH, 50° C./22% RH, and 50° C./50% RH. At designated time points the samples are characterized by XRPD for physical form and by HPLC using the following conditions: Column Zorbax Bonus-RP, 3.5-micron, 4.6×75 mm, mobile phase A is 0.1% TFA in water, mobile phase B is 0.1% TFA in ACN, gradient is 95% A at time 0 to 23% A at 9.5 minutes-12.1 minutes, 5% A at time 13-16 minutes, and 95% A at time 16.1 to 20 minutes with a flow rate of 1.5 mL/minute, a column temperature of 30° C., UV at 227 nM, an injection volume of 5 and autosampler at ambient temperature. The drug product formulation stress study under accelerated open dish conditions for methanesulfonic acid dihydrate (Example 2) is depicted in Table 5.

Data set [5] can be described thus: Formulation assessment: API powder flowability, compressibility, sticking. The following applies: compared to the free base. The procedure:
as §1

≈ marks a conversion by molar mass, not a printed value.

On to `OC[C@H]1O[C@@H](O[C@H]2[C@H](O)[C@@H](O)C(O)O[C@@H]2CO)[C@H](O)[C@@H](O)[C@H]1O` (some centres unmarked) [Lactose Anhydrous], for which the Tensile is on record as 0.9687 MPa in data set [1] (Pressure 64 MPa), 1.9119 MPa in data set [1] (Pressure 128 MPa) and 3.1671 MPa in data set [1] (Pressure 191 MPa).
The thermodynamic solubility is solubility found after equilibrating the solid with the medium. On to `Cn1nccc1Nc1nccc(-c2cc3c(s2)C(C)(C)N(CCN2CCOCC2)C3=O)n1` [Free base, 6,6-Dimethyl-2-{2-[(1-methyl-1H-pyrazol-5-yl)amino]pyrimidin-4-yl}-5-[2-(morpholin-4-yl)ethyl]-5,6-dihydro-4H-thieno[2,3-c]pyrrol-4-one, reference compound], for which the “pH of the solution in solubility test” value in data set [2] (FaSSIF) is recorded as 6.70; in data set [2] (FedSSIF), 5.36; in data set [2] (SGF) it was 5.05. The thermodynamic solubility at 24 h was 5650 µg/mL (≈ 12.5 mM) in data set [2] (fessif, FedSSIF); 3700 µg/mL (≈ 8.16 mM) in data set [2] (simulated gastric fluid, SGF); 130 µg/mL (≈ 0.287 mM) in data set [2] (FaSSIF). Besides, the results for the Tensile in data set [1] (Pressure 64 MPa), in data set [1] (Pressure 127 MPa) and in data set [1] (Pressure 191 MPa) were 0.5415 MPa, 1.0491 MPa and 1.6394 MPa, respectively.
`CS(=O)(=O)O.Cn1nccc1Nc1nccc(-c2cc3c(s2)C(C)(C)N(CCN2CCOCC2)C3=O)n1` [Example 1, 6,6-Dimethyl-2-{2-[(1-methyl-1H-pyrazol-5-yl)amino]pyrimidin-4-yl}-5-[2-(morpholin-4-yl)ethyl]-5,6-dihydro-4H-thieno[2,3-c]pyrrol-4-one; methanesulfonic acid]: the “Hygroscopicity, weight increase” value is given as below 0.1 wt % in data set [3] (20% RH), below 0.1 wt % in data set [3] (60% RH) and around 4 wt % in data set [3] (90% RH).
Regarding `Cc1ccc(S(=O)(=O)O)cc1.Cn1nccc1Nc1nccc(-c2cc3c(s2)C(C)(C)N(CCN2CCOCC2)C3=O)n1` [Example 3, 6,6-Dimethyl-2-{2-[(1-methyl-1H-pyrazol-5-yl)amino]pyrimidin-4-yl}-5-[2-(morpholin-4-yl)ethyl]-5,6-dihydro-4H-thieno[2,3-c]pyrrol-4-one; 4-methylbenzenesulfonic acid], the figures for the “pH of the solution in solubility test” value in data set [2] (FaSSIF), in data set [2] (FedSSIF) and in data set [2] (SGF) were 5.44, 5.04 and 2.46, respectively. The “solubility compared to the free base” value in data set [2] (FaSSIF and FedSSIF) is “higher solubility”. The thermodynamic solubility at 24 h in data set [2] (fessif, FedSSIF) is 13500 µg/mL; in data set [2] (simulated gastric fluid, SGF) it was 7080 µg/mL; in data set [2] (FaSSIF), 12200 µg/mL. For the same compound, the “hygroscopicity profile for drug product manufacturing processes” value in data set [3] was “preferred hygroscopicity profiles”. Also, the results for the “Hygroscopicity, weight increase” value in data set [3] (20% RH), in data set [3] (60% RH) and in data set [3] (90% RH) were below 0.1 wt %, around 0.2 wt % and around 0.5 wt. % increase wt %, respectively.
For the compound `OC[C@@H](O)[C@@H](O)[C@H](O)[C@H](O)CO` [Mannitol SD200], the Tensile stood at 0.4873 MPa in data set [1] (Pressure 64 MPa), 1.1966 MPa in data set [1] (Pressure 127 MPa) and 2.1411 MPa in data set [1] (Pressure 191 MPa).
Regarding `Cl.Cn1nccc1Nc1nccc(-c2cc3c(s2)C(C)(C)N(CCN2CCOCC2)C3=O)n1` [Example 4, 6,6-Dimethyl-2-{2-[(1-methyl-1H-pyrazol-5-yl)amino]pyrimidin-4-yl}-5-[2-(morpholin-4-yl)ethyl]-5,6-dihydro-4H-thieno[2,3-c]pyrrol-4-one; hydrochloride, reference compound], the “Hygroscopicity, weight increase” value is recorded as around 0.4 wt. % wt % in data set [3] (20% RH) and around 6 wt % in data set [3] (60% RH).
Take `CS(=O)(=O)O.Cn1nccc1Nc1nccc(-c2cc3c(s2)C(C)(C)N(CCN2CCOCC2)C3=O)n1` [Example 2, 6,6-Dimethyl-2-{2-[(1-methyl-1H-pyrazol-5-yl)amino]pyrimidin-4-yl}-5-[2-(morpholin-4-yl)ethyl]-5,6-dihydro-4H-thieno[2,3-c]pyrrol-4-one; methanesulfonic acid dihydrate]: the figures for the “pH of the solution in solubility test” value in data set [2] (FaSSIF), in data set [2] (FedSSIF) and in data set [2] (SGF) were 5.33, 5.09 and 2.62, respectively. Further, in data set [2] (FaSSIF and FedSSIF), the “physical stability with respect to solution mediated form conversion” value is listed as “physically stable”. In addition, the “solubility compared to the free base” value in data set [2] (FaSSIF and FedSSIF) is recorded as “higher solubility”. The solubility (thermodynamic) at 24 h was above 20300 µg/mL in data set [2] (fessif, FedSSIF); above 9700 µg/mL in data set [2] (simulated gastric fluid, SGF); above 19000 µg/mL in data set [2] (FaSSIF). Moreover, the “hygroscopicity profile for drug product manufacturing processes” value in data set [3] was “preferred hygroscopicity profiles”. Moreover, the “Hygroscopicity, weight increase” value in data set [3] (90% RH, dihydrate) was below 0.1 wt % increase. For the same compound, the figures for the Tensile in data set [1] (Pressure 64 MPa), in data set [1] (Pressure 127 MPa) and in data set [1] (Pressure 191 MPa) were 1.2034 MPa, 2.1532 MPa and 2.4082 MPa, respectively. Besides, the “compaction properties compared with excipients” value in data set [1] (versus mannitol SD200 and Lactose Anhydrous) was “in range with excipients”. Further, the “Physical stability in prototype tablet” value in data set [4] (40° C./11% RH, 7 days) is listed as “Stable”; in data set [4] (40° C./11% RH, 14 days), “Stable”; in data set [4] (40° C./75% RH, 7 days), “Stable”; in data set [4] (40° C./75% RH, 14 days) it was “Stable”; in data set [4] (40° C./75% RH, 30 days), “Stable”; in data set [4] (50° C./22% RH, 7 days), “Stable”. Further, the “Physical stability in prototype tablet” value in data set [4] (50° C./22% RH, 14 days) is given as “Stable”; in data set [4] (50° C./22% RH, 30 days), “Stable”; in data set [4] (50° C./50% RH, 7 days) it was “Stable”; in data set [4] (50° C./50% RH, 14 days), “Stable”; in data set [4] (50° C./50% RH, 30 days) it was “Stable”. For the same compound, the compressibility entry in data set [5] is on record as “improved”. Besides, the powder flowability result in data set [5] is recorded as “improved”. In addition, the “sticking to tableting tools” value in data set [5] is given as “reduced sticking”.
